Measured values reported in ChEMBL document CHEMBL1201862, “PubChem BioAssay data set” (2004).
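Compound exposure: 48 hours, 5 concentrations, 96-well plates. The concentration for 50% growth inhibition is given as GI50.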 Calls of active or inactive are those of the source. Rule as the data show it: active = GI50 up to about 1.1 µM and inactive = higher.

Columns and labels:
Assay in all cases: NCI anticancer screen, dose series, 48 h
[1] = tested on: NCI/ADR-RES
[2] = tested on: HT-29
[3] = tested on: ACHN
[4] = tested on: NCI-H460
[5] = tested on: CAKI-1
[6] = tested on: LOX IMVI
[7] = tested on: COLO 205
[8] = tested on: Hs-578T
[9] = tested on: IGROV-1
[10] = tested on: SK-MEL-2
[11] = tested on: OVCAR-8
[12] = tested on: KM12
[13] = tested on: U-251
[14] = tested on: UO-31
[15] = tested on: SNB-75
[16] = tested on: UACC-257
[17] = tested on: MCF7
[18] = tested on: DU-145
[19] = tested on: HOP-62
[20] = tested on: RPMI-8226
[21] = tested on: HOP-92
[22] = tested on: SF-539
[23] = tested on: SR
[24] = tested on: OVCAR-4
[25] = tested on: MOLT-4
[26] = tested on: EKVX
[27] = tested on: Malme-3M
[28] = tested on: MDA-MB-435
[29] = tested on: HCT-15
[30] = tested on: SF-268
[31] = tested on: PC-3
[32] = tested on: NCI-H226
[33] = tested on: SNB-19
[34] = tested on: A549
[35] = tested on: OVCAR-3
[36] = tested on: CCRF-CEM
[37] = tested on: K562
[38] = tested on: A498
[39] = tested on: HCC 2998
[40] = tested on: SW-620
[41] = tested on: HCT-116
[42] = tested on: SK-MEL-5
[43] = tested on: MDA-MB-231
[44] = tested on: SN12C
[45] = tested on: T47D
[46] = tested on: UACC-62
[47] = tested on: SF-295
[48] = tested on: NCI-H522
[49] = tested on: M14
[50] = tested on: SK-OV-3
[51] = tested on: OVCAR-5
[52] = tested on: HL-60
[53] = tested on: MDA-N
[54] = tested on: TK-10
[55] = tested on: NCI-H23
[56] = tested on: 786-0
[57] = tested on: RXF 393
[58] = tested on: SK-MEL-28
[59] = tested on: BT-549

`CC(=NNC(=S)Nc1cccc(C)c1)c1cccc(C(C)=NNC(=S)Nc2cccc(C)c2)n1` was tested, and the GI50 [1] was 14.2 µM (inactive), the GI50 [2] was 26.1 µM (inactive) and the GI50 [3] was 7.24 µM (inactive). For the same compound, the GI50 [4] was 12.8 µM (inactive), the GI50 [5] was 11.9 µM (inactive) and the GI50 [6] was 15.5 µM (inactive). For the same compound, the GI50 [7] was 8 µM (inactive), the GI50 [8] was > 100 µM (inactive) and the GI50 [9] was 10.8 µM (inactive). The GI50 [10] was 13.3 µM (inactive), the GI50 [11] was 11 µM (inactive) and the GI50 [12] was 0.851 µM (active). The GI50 [13] was 21.5 µM (inactive), the GI50 [14] was 16 µM (inactive) and the GI50 [15] was 17.5 µM (inactive). The GI50 [16] was 0.0198 µM (active), the GI50 [17] was 22.9 µM (inactive) and the GI50 [18] was > 100 µM (inactive). For the same compound, the GI50 [19] was 17 µM (inactive), the GI50 [20] was > 100 µM (inactive) and the GI50 [21] was 17.1 µM (inactive). For the same compound, the GI50 [22] was 14.6 µM (inactive), the GI50 [23] was 5.25 µM (inactive) and the GI50 [24] was 9.95 µM (inactive). The GI50 [25] was 15 µM (inactive), the GI50 [26] was 26.1 µM (inactive) and the GI50 [27] was 14.9 µM (inactive). The GI50 [28] was 22.4 µM (inactive), the GI50 [29] was 15.2 µM and the GI50 [30] was 59.2 µM (inactive). For the same compound, the GI50 [31] was 22.3 µM (inactive), the GI50 [32] was 18.6 µM (inactive) and the GI50 [33] was 30.5 µM (inactive). The GI50 [34] was 18.7 µM (inactive), the GI50 [35] was 3.39 µM (inactive) and the GI50 [36] was 4.22 µM (inactive). The GI50 [37] was 17.1 µM (inactive), the GI50 [38] was 21.9 µM (inactive) and the GI50 [39] was 43.3 µM (inactive). The GI50 [40] was 19 µM (inactive), the GI50 [41] was 12.2 µM (inactive) and the GI50 [42] was 8.89 µM (inactive). The GI50 [43] was 19 µM (inactive), the GI50 [44] was 25.8 µM (inactive) and the GI50 [45] was 30.8 µM (inactive). The GI50 [46] was 15.2 µM (inactive), the GI50 [47] was 6.19 µM (inactive) and the GI50 [48] was 21.2 µM (inactive). For the same compound, the GI50 [49] was 11.8 µM (inactive), the GI50 [50] was 44.4 µM (inactive) and the GI50 [51] was 34.8 µM (inactive). The GI50 [52] was 17.3 µM (inactive), the GI50 [53] was 42 µM (inactive) and the GI50 [54] was 20.3 µM (inactive). The GI50 [55] was 27.4 µM (inactive), the GI50 [56] was 8.18 µM (inactive) and the GI50 [57] was 16.2 µM (inactive). The GI50 [58] was > 100 µM (inactive).
With `Clc1ccc2sc(-n3ccc4ccccc43)nc2c1` the GI50 [1] was > 100 µM (inactive), the GI50 [2] was 75.9 µM (inactive) and the GI50 [3] was > 100 µM (inactive). For the same compound, the GI50 [4] was > 100 µM (inactive), the GI50 [6] was > 100 µM (inactive) and the GI50 [8] was 72.6 µM (inactive). The GI50 [9] was > 100 µM (inactive), the GI50 [11] was > 100 µM (inactive) and the GI50 [13] was > 100 µM (inactive). For the same compound, the GI50 [14] was > 100 µM (inactive), the GI50 [15] was 49.3 µM (inactive) and the GI50 [17] was 26.1 µM (inactive). For the same compound, the GI50 [25] was 55.7 µM (inactive), the GI50 [26] was > 100 µM (inactive) and the GI50 [29] was greater than 100 µM. For the same compound, the GI50 [59] was 84.3 µM (inactive), the GI50 [30] was > 100 µM (inactive) and the GI50 [31] was 67.6 µM (inactive). The GI50 [33] was 24.2 µM (inactive), the GI50 [36] was > 100 µM (inactive) and the GI50 [37] was 97.1 µM (inactive). The GI50 [38] was > 100 µM (inactive), the GI50 [39] was > 100 µM (inactive) and the GI50 [40] was > 100 µM (inactive). For the same compound, the GI50 [42] was > 100 µM (inactive), the GI50 [44] was > 100 µM (inactive) and the GI50 [46] was > 100 µM (inactive). For the same compound, the GI50 [50] was > 100 µM (inactive), the GI50 [51] was > 100 µM (inactive) and the GI50 [54] was > 100 µM (inactive). For the same compound, the GI50 [55] was 45.7 µM (inactive), the GI50 [57] was 13.3 µM (inactive) and the GI50 [58] was > 100 µM (inactive).
